This note sets out measurements from PubChem BioAssay AID330 (DTP/NCI, 2004).

The experiment relates to P388 leukemia ip, CD2F1 mice, survival T/C. Briefly: NCI In Vivo Anticancer Drug Screen. Data for tumor model P388 Leukemia (intraperitoneal) in CD2F1 (CDF1) mice. Particulars: endpoint: median survival time, higher = longer survival. In a few lines:
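Mice carrying the transplanted tumor received test compound or vehicle. Survival was recorded in each group, and the value is the treated-group measurement divided by that of the vehicle-treated control group.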

Where [1] appears, read: dose: 50.0 mg/kg/injection, schedule: Q01DX005 (ip), vehicle: Klucel (hydroxypropylcellulose) (HPC).
The mark [2] stands for this setting: dose: 25.0 mg/kg/injection, schedule: Q01DX001 (ip), vehicle: saline.
Setting [3] is: dose: 50.0 mg/kg/injection, schedule: Q01DX001 (ip), vehicle: saline.
[4] abbreviates: dose: 100.0 mg/kg/injection, schedule: Q01DX001 (ip), vehicle: Klucel (hydroxypropylcellulose) (HPC).
The mark [5] stands for this setting: dose: 100.0 mg/kg/injection, schedule: Q01DX001 (ip), vehicle: saline.
Setting [6] is: dose: 50.0 mg/kg/injection, schedule: Q01DX009 (ip), vehicle: saline with Tween-80.
[7] abbreviates: dose: 60.0 mg/kg/injection, schedule: Q01DX005 (ip), vehicle: saline with Tween-80.
The mark [8] stands for this setting: dose: 120.0 mg/kg/injection, schedule: Q01DX005 (ip), vehicle: saline with Tween-80.
Where [9] appears, read: dose: 240.0 mg/kg/injection, schedule: Q01DX005 (ip), vehicle: saline with Tween-80.
Setting [10] is: dose: 200.0 mg/kg/injection, schedule: Q01DX001 (ip), vehicle: saline.
Where [11] appears, read: dose: 200.0 mg/kg/injection, schedule: Q01DX005 (ip), vehicle: saline with Tween-80.
[12] abbreviates: dose: 25.0 mg/kg/injection, schedule: Q01DX009 (ip), vehicle: saline with Tween-80.
The mark [13] stands for this setting: dose: 100.0 mg/kg/injection, schedule: Q01DX009 (ip), vehicle: saline with Tween-80.

“And” between values parts separate entries of the source, which are not always exact repeats. Equal values may be shown once. Toxic doses and inconclusive results are not listed.

On to `CN(N=O)C(=O)NNC(=O)N(C)N=O`, for which the T/C is 105 % of control (dose: 15.0 mg/kg/injection, schedule: Q04DX003 (ip), vehicle: saline with Tween-80); 100 % of control (dose: 30.0 mg/kg/injection, schedule: Q01DX009 (ip), vehicle: saline with Tween-80); 110 % of control (dose: 30.0 mg/kg/injection, schedule: Q04DX003 (ip), vehicle: saline with Tween-80); 109 % of control (dose: 39.6 mg/kg/injection, schedule: Q04DX003 (ip), vehicle: saline with Tween-80); 113 % of control (dose: 60.0 mg/kg/injection, schedule: Q04DX003 (ip), vehicle: saline with Tween-80).

As for `COc1cc2ccc3c(c2cc1OC)CN1CCCC1C3` (stereo not drawn), the T/C by setting is: (dose: 6.25 mg/kg/injection, schedule: Q01DX005 (ip), vehicle: Klucel (hydroxypropylcellulose) (HPC)) 100 % of control; (dose: 12.5 mg/kg/injection, schedule: Q01DX005 (ip), vehicle: Klucel (hydroxypropylcellulose) (HPC)) 96 % of control; (dose: 25.0 mg/kg/injection, schedule: Q01DX005 (ip), vehicle: Klucel (hydroxypropylcellulose) (HPC)) 100 % of control; under setting [1], 105 % of control.

With `OC(c1ccccc1)(C1CCNCC1)C1CC1` (stereo not drawn), the T/C reads like this: (dose: 12.5 mg/kg/injection, schedule: Q01DX001 (ip), vehicle: saline) 105 % of control; under setting [2], 101 % of control and 97 % of control; under setting [3], 103 % of control and 106 % of control; under setting [4], 105 % of control; under setting [5], 102 % of control.

On to `CCOC(=O)/C(C#N)=C(\C)c1ccccc1`, for which, under setting [6], the T/C is 99 % of control.

Take `CCOC(=O)CC(CSCP(=O)(OCC)OCC)C(=O)OCC` (stereo not drawn): the T/C was 105 % of control under setting [7], 94 % of control under setting [8] and 100 % of control under setting [9].

In the case of `C=C1CC/C=C(\C)C(=O)C(O)C2C1CC2(C)C` (stereo not drawn), the T/C runs as follows: (dose: 0.37 mg/kg/injection, schedule: Q01DX009 (ip), vehicle: saline + alcohol) 104 % of control; (dose: 0.75 mg/kg/injection, schedule: Q01DX009 (ip), vehicle: saline + alcohol) 104 % of control; (dose: 1.5 mg/kg/injection, schedule: Q01DX009 (ip), vehicle: saline + alcohol) 106 % of control; (dose: 3.0 mg/kg/injection, schedule: Q01DX009 (ip), vehicle: saline + alcohol) 105 % of control; (dose: 6.0 mg/kg/injection, schedule: Q01DX009 (ip), vehicle: saline + alcohol) 88 % of control.

As to `O=C(NN1C(=O)C2=Cc3ccccc3OC2=NC1c1ccccc1O)c1ccncc1` (stereo not drawn), the T/C is 96 % of control under setting [5]; 98 % of control under setting [10]; 94 % of control (dose: 400.0 mg/kg/injection, schedule: Q01DX001 (ip), vehicle: saline).

For `CCOP(O)(=S)OCC.[Nd]`, the T/C is 89 % of control under setting [4]; 91 % of control (dose: 200.0 mg/kg/injection, schedule: Q01DX001 (ip), vehicle: Klucel (hydroxypropylcellulose) (HPC)); 99 % of control (dose: 400.0 mg/kg/injection, schedule: Q01DX001 (ip), vehicle: Klucel (hydroxypropylcellulose) (HPC)).

Consider `COc1ccc2ccc3cccnc3c2n1`, for which the T/C is 93 % of control under setting [7], 99 % of control under setting [8] and 105 % of control under setting [9].

Turning to `CC1(C)c2ccccc2-c2nc3ccccc3cc2C1O` (stereo not drawn), the T/C runs as follows: under setting [2], 96 % of control; under setting [3], 103 % of control; under setting [5], 101 % of control; under setting [10], 103 % of control.

Take `O=S(=O)(N/N=C/c1ccncc1)c1ccccc1`: the T/C is 110 % of control and 121 % of control (dose: 12.5 mg/kg/injection, schedule: Q01DX009 (ip), vehicle: other); 116 % of control (dose: 25.0 mg/kg/injection, schedule: Q01DX009 (ip), vehicle: other); 157 % of control (dose: 100.0 mg/kg/injection, schedule: Q01DX009 (ip), vehicle: other).

As for `O=C(O)c1cc(C(=O)O)cc([N+](=O)[O-])c1`, the T/C runs as follows: (dose: 25.0 mg/kg/injection, schedule: Q04DX003 (ip), vehicle: saline with Tween-80) 100 % of control; (dose: 50.0 mg/kg/injection, schedule: Q04DX003 (ip), vehicle: saline with Tween-80) 100 % of control; (dose: 100.0 mg/kg/injection, schedule: Q04DX003 (ip), vehicle: saline with Tween-80) 100 % of control.

Turning to `COc1ccc2c3c([nH]c2c1)[C@H]1C[C@H]2[C@H](C[C@@H](O)[C@H](OC)[C@H]2CO)CN1CC3`, the T/C is 104 % of control under setting [1]; 95 % of control (dose: 100.0 mg/kg/injection, schedule: Q01DX005 (ip), vehicle: Klucel (hydroxypropylcellulose) (HPC)); 90 % of control (dose: 200.0 mg/kg/injection, schedule: Q01DX005 (ip), vehicle: Klucel (hydroxypropylcellulose) (HPC)).

For the compound `O=C1CS/C(=N/N=C/c2nc3ccccc3c(=O)n2-c2ccc(Cl)cc2)N1c1ccccc1`, the T/C under setting [11] is 88 % of control.

As to `CCC(c1ccc(O)cc1)c1cc2c(cc1OCC(=O)OC)OCO2` (stereo not drawn), the T/C (dose: 50.0 mg/kg/injection, schedule: Q01DX005 (ip), vehicle: saline with Tween-80) was 97 % of control; the T/C (dose: 100.0 mg/kg/injection, schedule: Q01DX005 (ip), vehicle: saline with Tween-80) was 93 % of control; the T/C under setting [11] was 88 % of control.

With `Cc1cc(=O)[nH]c(N/N=C/c2c(O)ccc3ccccc23)n1`, the T/C (dose: 12.5 mg/kg/injection, schedule: Q01DX009 (ip), vehicle: saline with Tween-80) was 93 % of control; the T/C under setting [12] was 88 % of control; the T/C under setting [6] is 87 % of control; the T/C under setting [13] is 102 % of control.

As to `N#CC(NCc1ccccc1)c1ccc2c(c1)OCO2` (stereo not drawn), the T/C under setting [12] is 90 % of control.

Regarding `NC(=O)c1cccnc1`, the T/C is, setting by setting: under setting [6], 106 % of control; under setting [13], 110 % of control; (dose: 200.0 mg/kg/injection, schedule: Q01DX009 (ip), vehicle: saline with Tween-80) 97 % of control; (dose: 250.0 mg/kg/injection, schedule: Q01DX009 (sc), vehicle: saline) 102 % of control; (dose: 500.0 mg/kg/injection, schedule: Q01DX009 (sc), vehicle: saline) 105 % of control.

For the compound `Nc1nc(SCc2ccccc2)sc1C(=O)N1CCCCC1`, the T/C was 100 % of control (dose: 50.0 mg/kg/injection, schedule: Q01DX009 (ip), vehicle: Klucel (hydroxypropylcellulose) (HPC)); 100 % of control (dose: 100.0 mg/kg/injection, schedule: Q01DX009 (ip), vehicle: Klucel (hydroxypropylcellulose) (HPC)); 101 % of control (dose: 200.0 mg/kg/injection, schedule: Q01DX009 (ip), vehicle: Klucel (hydroxypropylcellulose) (HPC)).

For `COc1cc(/C=C(/NC(=O)c2ccccc2)C(O)=C(C#N)C#N)ccc1O`, the T/C is 95 % of control (dose: 60.0 mg/kg/injection, schedule: Q01DX005 (ip), vehicle: saline) and 91 % of control (dose: 120.0 mg/kg/injection, schedule: Q01DX005 (ip), vehicle: saline).

Consider `CCC/C(=N\N=C(N)N)c1ccc(Cl)cc1`, for which the T/C (dose: 25.0 mg/kg/injection, schedule: Q04DX002 (ip), vehicle: saline with Tween-80) is 100 % of control.

As to `CNC(=O)OCc1c(C)oc(-c2ccc(Cl)c(Cl)c2)c1COC(=O)NC`, the T/C (dose: 25.0 mg/kg/injection, schedule: Q01DX009 (ip), vehicle: distilled water + Tween-80) is 102 % of control; the T/C (dose: 50.0 mg/kg/injection, schedule: Q01DX009 (ip), vehicle: distilled water + Tween-80) is 97 % of control; the T/C (dose: 100.0 mg/kg/injection, schedule: Q01DX009 (ip), vehicle: distilled water + Tween-80) was 97 % of control; the T/C (dose: 200.0 mg/kg/injection, schedule: Q01DX009 (ip), vehicle: distilled water + Tween-80) is 91 % of control; the T/C (dose: 400.0 mg/kg/injection, schedule: Q01DX009 (ip), vehicle: distilled water + Tween-80) is 90 % of control.

In the case of `N#CCN=C(N)NN`, the T/C runs as follows: (dose: 100.0 mg/kg/injection, schedule: Q04DX003 (ip), vehicle: Klucel (hydroxypropylcellulose) (HPC)) 105 % of control; (dose: 200.0 mg/kg/injection, schedule: Q04DX003 (ip), vehicle: Klucel (hydroxypropylcellulose) (HPC)) 94 % of control; (dose: 400.0 mg/kg/injection, schedule: Q04DX003 (ip), vehicle: Klucel (hydroxypropylcellulose) (HPC)) 108 % of control.
